Laboratory results from US20110313156A1 (BOEHRINGER INGELHEIM INTERNATIONAL GMBH, priority 2008, published 2011).

Each compound was assayed against T1, His6-PDK1 (aa 52-556) (Homo sapiens, UniProt O15530) (assay: PDK1 kinase assay III (with Tween 20)). Details: compound at 10 μM; PDK1 kinase assay III (values without asterisk); read-out: % CTL (residual activity of the enzyme relative to DMSO control).
T1 construct: 15 μL His6-PDK1 (aa 52-556) 3.33 ng/well); host or cells: baculovirus-infected insect cells
T1 sequence (O15530 52-556): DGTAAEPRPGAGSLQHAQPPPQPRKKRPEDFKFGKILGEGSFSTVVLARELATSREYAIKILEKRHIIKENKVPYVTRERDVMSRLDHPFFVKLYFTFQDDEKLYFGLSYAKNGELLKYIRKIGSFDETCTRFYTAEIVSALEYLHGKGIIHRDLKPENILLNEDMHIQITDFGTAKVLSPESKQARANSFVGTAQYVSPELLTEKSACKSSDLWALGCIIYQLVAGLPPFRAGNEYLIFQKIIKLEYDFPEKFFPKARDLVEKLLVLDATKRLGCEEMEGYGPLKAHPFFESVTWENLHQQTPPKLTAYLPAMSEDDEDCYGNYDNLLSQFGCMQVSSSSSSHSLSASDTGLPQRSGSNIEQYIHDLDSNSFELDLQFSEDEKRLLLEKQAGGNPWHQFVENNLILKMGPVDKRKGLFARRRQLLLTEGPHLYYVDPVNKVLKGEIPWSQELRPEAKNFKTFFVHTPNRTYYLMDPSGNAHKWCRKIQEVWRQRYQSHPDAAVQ
Type: biochemical
How it was run: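 Started with ATP, incubated 90 min at ambient temperature, then stopped with phosphoric acid. Asterisked values come from assay II (24 h or 5 min incubation).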
`CN(C)Cc1ccc(Nc2ncc3cc(/C=C/CNC(=O)c4cncn(Cc5ccc(F)c(F)c5)c4=O)ccc3n2)cc1` [IV-3, 1-(3,4-difluorobenzyl)-N-{(2E)-3-[2-({4-[(dimethylamino)methyl]phenyl}amino)-quinazolin-6-yl]prop-2-en-1-yl}-6-oxo-1,6-dihydropyrimidine-5-carboxamide] was tested, and the remaining activity at 10 µM was 11.1%. Work on `Cc1c(C(=O)NC/C=C/c2ccc3nc(Nc4ccccc4)ncc3c2)c(=O)n(Cc2ccc(F)c(F)c2)n1C` [IV-5, 2-(3,4-difluorobenzyl)-1,5-dimethyl-3-oxo-N-{(2E)-3-[2-(phenylamino)quinazolin-6-yl]prop-2-en-1-yl}-2,3-dihydro-1H-pyrazole-4-carboxamide] yielded a remaining activity at 10 µM of 13.6%. Compound `COc1cc(/C=C/CNC(=O)c2cncn(Cc3ccc(F)c(F)c3)c2=O)cc2cnc(Nc3ccc(CN(C)C)cc3)nc12` [IV-18, 1-(3,4-difluorobenzyl)-N-{(2E)-3-[2-({4-[(dimethylamino)methyl]phenyl}amino)-8-methoxyquinazolin-6-yl]prop-2-en-1-yl}-6-oxo-1,6-dihydropyrimidine-5-carboxamide] has a remaining activity at 10 µM of 15%. `Cc1c(C(=O)NC/C=C/c2ccc3nc(Nc4ccc(CN(C)C)cc4)ncc3c2)c(=O)n(Cc2ccccc2)n1C` [IV-19, 2-benzyl-N-{(2E)-3-[2-({4-[(dimethylamino)methyl]phenyl}amino)quinazolin-6-yl]prop-2-en-1-yl}-1,5-dimethyl-3-oxo-2,3-dihydro-1H-pyrazole-4-carboxamide] showed a remaining activity at 10 µM of 12.6%. `Cc1c(C(=O)NC/C=C/c2ccc3nc(Nc4ccc(CN(C)C)cc4)ncc3c2)c(=O)n(Cc2cc(F)c(F)c(F)c2)n1C` [IV-20, N-{(2E)-3-[2-({4-[(dimethylamino)methyl]phenyl}amino)quinazolin-6-yl]prop-2-en-1-yl}-1,5-dimethyl-3-oxo-2-(3,4,5-trifluorobenzyl)-2,3-dihydro-1H-pyrazole-4-carboxamide] showed a remaining activity at 10 µM of 14.3%. For `Cc1c(C(=O)NC/C=C/c2ccc3nc(Nc4ccc(CN(C)C)cc4)ncc3c2)c(=O)n(Cc2ccc(F)c(F)c2)n1C` [IV-21, 2-(3,4-difluorobenzyl)-N-{(2E)-3-[2-({4-[(dimethylamino)methyl]phenyl}amino)-quinazolin-6-yl]prop-2-en-1-yl}-1,5-dimethyl-3-oxo-2,3-dihydro-1H-pyrazole-4-carboxamide], the remaining activity at 10 µM was 11.2%. `CN(C)Cc1ccc(Nc2ncc3cc(/C=C/CNC(=O)c4cn(C)c(=O)n(Cc5ccc(F)c(F)c5)c4=O)ccc3n2)cc1` [IV-22, 3-(3,4-difluorobenzyl)-N-{(2E)-3-[2-({4-[(dimethylamino)methyl]phenyl}amino)-quinazolin-6-yl]prop-2-en-1-yl}-1-methyl-2,4-dioxo-1,2,3,4-tetrahydropyrimidine-5-carboxamide] gave a remaining activity at 10 µM of 19.7%. Compound `CN(C)Cc1ccc(Nc2ncc3cc(CCCNC(=O)c4cncn(Cc5ccc(F)c(F)c5)c4=O)ccc3n2)cc1` [IV-23, 1-(3,4-difluorobenzyl)-N-{3-[2-({4-[(dimethylamino)methyl]phenyl}amino)quinazolin-6-yl]propyl}-6-oxo-1,6-dihydropyrimidine-5-carboxamide] has a remaining activity at 10 µM of 16.8%. For `O=C(NCc1ccc(Nc2ncnc3[nH]c(-c4ccccc4)cc23)cc1)c1cncn(Cc2ccc(F)c(F)c2)c1=O` [IV-24, 1-(3,4-difluorobenzyl)-6-oxo-N-{4-[(6-phenyl-7H-pyrrolo[2,3-d]pyrimidin-4-yl)amino]benzyl}-1,6-dihydropyrimidine-5-carboxamide], the remaining activity at 10 µM was 15.7%. For `Cc1c(C(=O)NCc2ccc(Nc3ncnc4[nH]c(-c5ccccc5)cc34)cc2)c(=O)n(Cc2ccc(F)c(F)c2)n1C` [IV-25, 2-(3,4-difluorobenzyl)-1,5-dimethyl-3-oxo-N-{4-[(6-phenyl-7H-pyrrolo[2,3-d]-pyrimidin-4-yl)amino]benzyl}-2,3-dihydro-1H-pyrazole-4-carboxamide], the remaining activity at 10 µM was 33.5%. In the case of `CN(C)Cc1ccc(-c2cc3c(Nc4ccc(CNC(=O)c5cncn(Cc6ccc(F)c(F)c6)c5=O)cc4)ncnc3[nH]2)cc1` [IV-26, 1-(3,4-difluorobenzyl)-N-{4-[(6-{4-[(dimethylamino)methyl]phenyl}-7H-pyrrolo[2,3-d]pyrimidin-4-yl)amino]benzyl}-6-oxo-1,6-dihydropyrimidine-5-carboxamide], the remaining activity at 10 µM is reported as 20.9%. Work on `O=C(NCc1ccc(Nc2ncnc3[nH]ccc23)cc1)c1cncn(Cc2ccc(F)c(F)c2)c1=O` [IV-27, 1-(3,4-difluorobenzyl)-6-oxo-N-[4-(7H-pyrrolo[2,3-d]pyrimidin-4-ylamino)benzyl]-1,6-dihydropyrimidine-5-carboxamide] yielded a remaining activity at 10 µM of 43.9%. In the case of `CN(C)Cc1ccc(Nc2ncc3cc(N4CC[C@@H](NC(=O)c5cncn(Cc6ccc(F)c(F)c6)c5=O)C4)ccc3n2)cc1` [IV-29, 1-(3,4-difluorobenzyl)-N-{(3R)-1-[2-({4-[(dimethylamino)methyl]phenyl}amino)-quinazolin-6-yl]pyrrolidin-3-yl}-6-oxo-1,6-dihydropyrimidine-5-carboxamide], the remaining activity at 10 µM is reported as 14.7%. With `CN(C)Cc1ccc(Nc2ncc3cc(/C=C(\F)CNC(=O)c4cncn(Cc5ccc(F)c(F)c5)c4=O)ccc3n2)cc1` [IV-30, 1-(3,4-difluorobenzyl)-N-{(2Z)-3-[2-({4-[(dimethylamino)methyl]phenyl}amino)-quinazolin-6-yl]-2-fluoroprop-2-en-1-yl}-6-oxo-1,6-dihydropyrimidine-5-carboxamide] the remaining activity at 10 µM was 13.7%. In the case of `CN(C)Cc1ccc(Nc2ncc3cc(N4CC(NC(=O)c5cncn(Cc6ccc(F)c(F)c6)c5=O)C4)ccc3n2)cc1` [IV-31, 1-(3,4-difluorobenzyl)-N-{1-[2-({4-[(dimethylamino)methyl]phenyl}amino)quinazolin-6-yl]azetidin-3-yl}-6-oxo-1,6-dihydropyrimidine-5-carboxamide], the remaining activity at 10 µM is reported as 20.2%. Work on `CC(/C=C/c1ccc2nc(Nc3ccc(CN(C)C)cc3)ncc2c1)NC(=O)c1cncn(Cc2ccc(F)c(F)c2)c1=O` (centres unmarked) [IV-32, 1-(3,4-difluorobenzyl)-N-{(3E)-4-[2-({4-[(dimethylamino)methyl]phenyl}amino)-quinazolin-6-yl]but-3-en-2-yl}-6-oxo-1,6-dihydropyrimidine-5-carboxamide] yielded a remaining activity at 10 µM of 19%. For `CN(C)Cc1ccc(Nc2ncc3c(F)c(/C=C/CNC(=O)c4cncn(Cc5ccc(F)c(F)c5)c4=O)ccc3n2)cc1` [IV-33, 1-(3,4-difluorobenzyl)-N-{(2E)-3-[2-({4-[(dimethylamino)methyl]phenyl}amino)-5-fluoroquinazolin-6-yl]prop-2-en-1-yl}-6-oxo-1,6-dihydropyrimidine-5-carboxamide], the remaining activity at 10 µM was 14.9%. `Cc1c(C(=O)NC/C=C/c2ccc3nc(Nc4ccc(CN(C)C)cc4)ncc3c2F)c(=O)n(Cc2ccc(F)c(F)c2)n1C` [IV-34, 2-(3,4-difluorobenzyl)-N-{(2E)-3-[2-({4-[(dimethylamino)methyl]phenyl}amino)-5-fluoroquinazolin-6-yl]prop-2-en-1-yl}-1,5-dimethyl-3-oxo-2,3-dihydro-1H-pyrazole-4-carboxamide] gave a remaining activity at 10 µM of 14.4%. `CN1CCC(N(C)c2ccc(Nc3ncc4c(F)c(/C=C/CNC(=O)c5cncn(Cc6ccc(F)c(F)c6)c5=O)ccc4n3)cc2)CC1` [IV-35, 1-(3,4-difluorobenzyl)-N-{(2E)-3-[5-fluoro-2-({4-[methyl(1-methylpiperidin-4-yl)amino]phenyl}amino)quinazolin-6-yl]prop-2-en-1-yl}-6-oxo-1,6-dihydropyrimidine-5-carboxamide] was tested, and the remaining activity at 10 µM was 13.9%. With `Cc1c(C(=O)NC/C=C/c2ccc3nc(Nc4ccc(N(C)C5CCN(C)CC5)cc4)ncc3c2F)c(=O)n(Cc2ccc(F)c(F)c2)n1C` [IV-36, 2-(3,4-difluorobenzyl)-N-{(2E)-3-[5-fluoro-2-({4-[methyl(1-methylpiperidin-4-yl)amino]phenyl}amino)quinazolin-6-yl]prop-2-en-1-yl}-1,5-dimethyl-3-oxo-2,3-dihydro-1H-pyrazole-4-carboxamide] the remaining activity at 10 µM was 14.2%. With `Cc1c(/C=C/CNC(=O)c2c(C)n(C)n(Cc3ccc(F)c(F)c3)c2=O)c(=O)n(C(C)C)c2nc(Nc3ccc(N4CCOCC4)cc3)ncc12` [IV-37, 2-(3,4-difluorobenzyl)-1,5-dimethyl-N-{(2E)-3-[5-methyl-2-{[4-(morpholin-4-yl)phenyl]amino}-7-oxo-8-(propane-2-yl)-7,8-dihydropyrido[2,3-c]pyrimidin-6-yl]prop-2-en-1-yl}-3-oxo-2,3-dihydro-1H-pyrazole-4-carboxamide] the remaining activity at 10 µM was 15.4%. With `Cc1c(/C=C/CNC(=O)c2cncn(Cc3ccc(F)c(F)c3)c2=O)c(=O)n(C(C)C)c2nc(Nc3ccc(N4CCOCC4)cc3)ncc12` [IV-38, 1-(3,4-difluorobenzyl)-N-{(2E)-3-[5-methyl-2-{[4-(morpholin-4-yl)phenyl]amino}-7-oxo-8-(propane-2-yl)-7,8-dihydropyrido[2,3-d]pyrimidin-6-yl]prop-2-en-1-yl}-6-oxo-1,6-dihydropyrimidine-5-carboxamide] the remaining activity at 10 µM was 11.8%. `CN(C)Cc1ccc(Nc2ncc3cc(/C=C/CNC(=O)c4cc(Cl)nn(Cc5ccc(F)c(F)c5)c4=O)ccc3n2)cc1` [IV-39, 6-chloro-2-(3,4-difluorobenzyl)-N-{(2E)-3-[2-({4-[(dimethylamino)methyl]phenyl}amino)quinazolin-6-yl]prop-2-en-1-yl}-3-oxo-2,3-dihydropyridazine-4-carboxamide] showed a remaining activity at 10 µM of 17.9%.
